No end group written: not given here.
How the values were obtained:
[1] = tested on: talin-R7R8 (residues 1358–1653), R8 domain; assay: X-ray structure of talin-R7R8 in complex with Caskin2-LD peptide, interface analysis; type: binding, murine; conditions: electron density map; 1:2 molar ratio of protein to peptide
Protocol: A codon-optimized synthetic gene encoding murine talin-R7/R8 domains (residues 1358–1653) was cloned into the pETNKI-6xhis-3C-LIC vector ([Luna-Vargas et al., 2011]). The 6×his–3C–talin-R7/R8 protein was expressed in Bl21(DE3) cells, for 18 h at 20°C upon induction with 0.4 mM IPTG. Cells were harvested by centrifugation (4000 g for 15 min) and stored at −20°C. After thawing, cells were resuspended in lysis buffer [25 mM Tris-HCl pH 8.0, 10 mM imidazole, 200 mM NaCl, 1 mM TCEP and 5 μg/ml DNase (Roche)] and lysed by sonication. The soluble lysate fractions were collected after centrifugation (55,000 g at 4°C for 30 min) and applied to a nickel Sepharose column. Beads were washed with wash buffer (lysis buffer without DNase) and protein was eluted in the same buffer supplemented with 250 mM imidazole. The 6×His tag was cleaved off by his-3C protease during dialysis against 25 mM Tris-HCl pH 8.0, 100 mM NaCl, 1 mM TCEP for 16 h at 4°C. The protein solution was diluted with an equal volume of 25 mM Tris-HCl pH 8.0, 1 mM TCEP before his-3C protease and uncleaved 6×his–talin-R7/R8 were removed by nickel Sepharose. The protein was further purified by anion exchange chromatography (Resource Q column, Cytiva) followed by size exclusion chromatography (S75 Superdex 16/60, Cytiva) in 25 mM Tris-HCl pH 8.0, 100 mM NaCl, 1 mM TCEP. Talin-R7/R8 eluted in a single peak. […]

[2] = tested on: MCF7 cells; assay: Caskin2–talin colocalization in MCF7 cells (Pearson's correlation); type: cell-based, Human; conditions: blebbistatin 10 µM, 20 µM for 45 min (Fig. S3B)
Protocol: PA-JEB/β4 keratinocytes were seeded on glass coverslips and cultured for 24 h in complete KGM, and then continued to be cultured for a further 16 h in DMEM with 10% FCS. GE11^tetONβ1 and MCF7 cells were seeded on glass coverslips and cultured for 24 h in DMEM with 10% FCS. Cells were fixed in 2% paraformaldehyde and permeabilized with 0.2% Triton X-100 for 5 min, blocked with PBS containing 2% bovine serum albumin (BSA; Sigma-Aldrich) for 45 min and subsequently incubated with primary and secondary antibodies for 1 h. In between antibody steps, the coverslips were washed three times with PBS. Actin fibers were visualized by staining with Phalloidin–Alexa Fluor 647 (Cell Signaling Technology). Nuclei were stained with DAPI. Samples were mounted on glass slides in Mowiol after three washing steps with PBS. Images were acquired with a Leica TCS SP5 confocal microscope with a 63× (NA 1.4) oil objective. Software for image acquisition is Leica LAS AF 3.0.2 ([Wang et al., 2020b]).
Imaging analysis was performed using FIJI software ([Schindelin et al., 2012]). The levels of colocalization between Caskin2 and various other proteins, including integrin β4, FA proteins and CMSC components, was performed using Pearson's co-efficient analysis in the JACoP module of ImageJ ([Carisey et al., 2013]; [Wang et al., 2020b]).

| Compound | binding to talin-R8 in crystal structure [1] | overall Caskin2–talin colocalization [2] |
| --- | --- | --- |
| Caskin2-LD peptide: C-terminal LD motif peptide of Caskin2 (residues 1187–1202) (STMFDALADQLDAMLD; also: Atto488 label) | clear binding of the Caskin2-LD peptide to the R8 motif | – |
| Cc1ccc2c(c1)C(=O)C1(O)CCN(c3ccccc3)C1=N2 (centres unmarked) [blebbistatin] | – | increased overall Caskin2–talin colocalization |

Source: article PMC11166458, “Caskin2 is a novel talin- and Abi1-binding protein that promotes cell motility” (Journal of Cell Science, 2024)
